# Data reported in patent US20130142883A1, “MEDICAL FOOD FOR THE DIETARY MANAGEMENT OF DEPRESSION AND ANXIETY AND METHODS THEREOF” (priority 2011, published 2013).
# Key:
# C57BI/6 mice = assay: Dark-light box test after 14 days of drinking water; assay type: in vivo; details: three-months-old male mice; water ad libitum 14 days; Diazepam 2.5 mg/kg bolus 30 min prior the test; mean±SEM
# Protocol: Bolus injection of anxiolytic drug Diazepam (2.5 mg/kg, 30 min prior the test) was used as a positive reference control.
# C57BI/6J mice = assay: Sucrose preference test (anhedonia) under chronic stress; assay type: in vivo; details: young adult male mice; water one week before and during ten days of chronic stress; 10th day; Citalopram 15 mg/kg per day per os; mean±SEM
# Protocol: Citalopram 15 mg/kg per day per os was used as the reference antidepressant drug. There was no difference between groups at baseline. At 10th day of the stress procedure, animals were tested on the sucrose preference, common test for assessment of anhedonia. Results are presented in Table 6 as mean±SEM percent of sucrose preference.
SMILES,Time (time spent in the lit box) (C57BI/6 mice) [s],Sucrose preference (C57BI/6J mice) [%]
CN1C(=O)CN=C(c2ccccc2)c2cc(Cl)ccc21 [Diazepam],155.2 ± 7.8,–
CN(C)CCCC1(c2ccc(F)cc2)OCc2cc(C#N)ccc21 (centres unmarked) [Citalopram],–,70.0 ± 3.0
